From patent publication US7425557B2, “Inhibitors of glycogen synthase kinase 3” (Novartis Vaccines and Diagnostics, Inc., priority 1998, dated 2008) come the findings set out here.

Usually IC50 stands for the concentration that gives 50% inhibition.

Where only a bound is given, the exact number is not on record here.

The experiment addresses human GSK3β (Homo sapiens, UniProt P49841). Put plainly: Screening for GSK3 inhibitory activity using a cell-free assay. The experiment is classed as biochemical. The following applies: read-out: IC50 with respect to GSK3. In outline:
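Radiometric cell-free assay with recombinant human GSK3β phosphorylating a biotinylated peptide substrate for 3 h. Reactions were stopped with 50 μM ATP/20 mM EDTA and captured on streptavidin plates. Incorporated radiolabel was counted by scintillation and plotted against compound concentration.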

Sequence of human GSK3β (P49841 whole entry): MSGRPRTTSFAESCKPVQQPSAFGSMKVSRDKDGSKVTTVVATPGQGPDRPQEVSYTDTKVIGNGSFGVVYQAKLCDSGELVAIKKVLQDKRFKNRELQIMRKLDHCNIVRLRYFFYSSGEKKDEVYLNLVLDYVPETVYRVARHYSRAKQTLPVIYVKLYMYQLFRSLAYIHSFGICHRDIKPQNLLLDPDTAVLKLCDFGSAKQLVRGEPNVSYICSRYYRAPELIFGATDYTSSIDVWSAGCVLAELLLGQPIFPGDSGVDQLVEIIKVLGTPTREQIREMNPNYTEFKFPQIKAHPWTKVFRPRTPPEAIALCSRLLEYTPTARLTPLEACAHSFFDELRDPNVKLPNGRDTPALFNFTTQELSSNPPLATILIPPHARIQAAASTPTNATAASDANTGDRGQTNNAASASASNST

With `O=[N+]([O-])c1ccc(NCCNc2ncc(-c3ccc(F)cc3)cn2)nc1` [[5-(4-fluorophenyl)pyrimidin-2-yl]{2-[(5-nitro(2-pyridyl))amino]ethyl}amine], the IC50 was at most 10000 nM. For `C/C(=N\c1cnc(NCCNc2ccc([N+](=O)[O-])c(N)n2)nc1-c1ccc(Cl)cc1Cl)N1CCOCC1` [[5-((1E)-1-aza-2-morpholin-4-ylprop-1-enyl)-4-(2,4-dichlorophenyl)pyrimidin-2-yl]{2-[(6-amino-5-nitro(2-pyridyl))amino]ethyl}amine] the value was at most 1000 nM; for `Nc1cnc(NCCNc2ccc([N+](=O)[O-])c(N)n2)nc1-c1ccc(Cl)cc1Cl` [[5-amino-4-(2,4-dichlorophenyl)pyrimidin-2-yl]{2-[(6-amino-5-nitro(2-pyridyl))amino]ethyl}amine], at most 1000 nM.

For `O=[N+]([O-])c1ccc(NCCNc2ncc(-n3cnc4ccccc43)c(-c3ccc(Cl)cc3Cl)n2)nc1` [[5-benzimidazolyl-4-(2,4-dichlorophenyl)pyrimidin-2-yl]{2-[(5-nitro-(2-pyridyl))amino]ethyl}amine], the IC50 was at most 1000 nM.

As for `O=[N+]([O-])c1ccc(NCCNc2ncc(-n3nnc4ccccc43)c(-c3ccc(Cl)cc3Cl)n2)nc1` [[5-benzotriazolyl-4-(2,4-dichlorophenyl)pyrimidin-2-yl]{2-[(5-nitro(2-pyridyl))amino]ethyl}amine], the IC50 was at most 1000 nM. The figure for `O=[N+]([O-])c1ccc(NCCNc2ccc(-n3ccnc3)c(-c3ccc(Cl)cc3Cl)n2)nc1` [[6-(2,4-dichlorophenyl)-5-imidazolyl(2-pyridyl)]{2-[(5-nitro(2-pyridyl))amino]ethyl}amine] is at most 1000 nM. The figure for `O=[N+]([O-])c1ccc(NCCNc2nccc(NCc3cc(Cl)cc(Cl)c3)n2)nc1` [[(3,5-dichlorophenyl)methyl][2-({2-[(5-nitro(2-pyridyl))amino]ethyl}amino)pyrimidin-4-yl]amine] is at most 10000 nM; for `O=[N+]([O-])c1ccc(NCCNc2nccc(-c3ccc(S(=O)(=O)NCc4cccc(Br)c4)cc3)n2)nc1` [[(3-bromophenyl)methyl]({4-[2-({2-[(5-nitro(2-pyridyl))amino]ethyl}-amino)pyrimidin-4-yl]phenyl}sulfonyl)amine] it is at most 10000 nM; for `O=[N+]([O-])c1ccc(NCCNc2nccc(NCc3cccc(Cl)c3)n2)nc1` [[(3-chlorophenyl)methyl][2-({2-[(5-nitro(2-pyridyl))-amino]ethyl}amino)pyrimidin-4-yl]amine] it is at most 10000 nM. Take `Cc1cccc(CNc2ccnc(NCCNc3ccc([N+](=O)[O-])cn3)n2)c1` [[(3-methylphenyl)methyl][2-({2-[(5-nitro-(2-pyridyl))amino]ethyl}amino)pyrimidin-4-yl]amine]: the IC50 is at most 10000 nM. The figure for `O=[N+]([O-])c1ccc(NCCNc2nccc(NCc3ccc(Cl)cc3)n2)nc1` [[(4-chlorophenyl)methyl][2-({2-[(5-nitro(2-pyridyl))amino]ethyl}amino)pyrimidin-4-yl]amine] is at most 10000 nM. As to `O=S(=O)(NCc1ccccc1)c1ccc(-c2ccnc(NCCNc3ccccn3)n2)cc1` [benzyl{[4-(2-{[2-(2-pyridylamino)ethyl]-amino}pyrimidin-4-yl)phenyl]sulfonyl}amine], the IC50 is at most 10000 nM. On to `CCCCOC(=O)c1cnc(NCCNc2ccc([N+](=O)[O-])cn2)nc1-c1ccc(C#N)cc1` [butyl 4-(4-cyanophenyl)-2-({2-[(5-nitro(2-pyridyl))amino]ethyl}amino)pyrimidine-5-carboxylate], for which the IC50 is at most 1000 nM.

Turning to `CCOC(=O)c1cnc(NCCNc2ncc(C#N)c(N)n2)nc1-c1ccc(C#N)cc1` [ethyl 2-({2-[(4-amino-5-cyanopyrimidin-2-yl)amino]ethyl}amino)-4-(4-cyanophenyl)pyrimidine-5-carboxylate], the half-maximal inhibitory concentration (IC50) is at most 1000 nM. For `CCOC(=O)c1cnc(NCCNc2ncc([N+](=O)[O-])c(N)n2)nc1-c1ccc(C#N)cc1` [ethyl 2-({2-[(4-amino-5-nitropyrimidin-2-yl)amino]ethyl}amino)-4-(4-cyanophenyl)pyrimidine-5-carboxylate] the value was at most 1000 nM; for `CCOC(=O)c1cnc(NCCNc2ccc(N)cn2)nc1-c1ccc(C#N)cc1` [ethyl 2-({2-[(5-amino(2-pyridyl))amino]ethyl}amino)-4-(4-cyanophenyl)pyrimidine-5-carboxylate], at most 10000 nM; for `CCOC(=O)c1cnc(NCCNc2ccc(C#N)cn2)nc1-c1ccc(C#N)cc1` [ethyl 2-({2-[(5-cyano(2-pyridyl))amino]ethyl}amino)-4-(4-cyanophenyl)pyrimidine-5-carboxylate], at most 1000 nM. The figure for `CCOC(=O)c1cnc(NCCNc2ccc([N+](=O)[O-])cn2)nc1-c1cccc([N+](=O)[O-])c1` [ethyl 2-({2-[(5-nitro(2-pyridyl))amino]ethyl}amino)-4-(3-nitrophenyl)pyrimidine-5-carboxylate] is at most 10000 nM. For `CCOC(=O)c1cnc(NCCNc2ccc([N+](=O)[O-])cn2)nc1-c1cnc2ccccc2c1` [ethyl 2-({2-[(5-nitro(2-pyridyl))amino]ethyl}amino)-4-(3-quinolyl)pyrimidine-5-carboxylate] the value was at most 10000 nM. With `CCOC(=O)c1cnc(NCCNc2ccc([N+](=O)[O-])cn2)nc1-c1ccc(-n2cnnc2)cc1` [ethyl 2-({2-[(5-nitro(2-pyridyl))amino]ethyl}amino)-4-(4-(1,2,4-triazol-4-yl)phenyl)pyrimidine-5-carboxylate], the IC50 is at most 1000 nM.

For the compound `CCOC(=O)c1cnc(NCCNc2ccc([N+](=O)[O-])cn2)nc1-c1ccc(-c2ccccc2)cc1` [ethyl 2-({2-[(5-nitro(2-pyridyl))amino]ethyl}amino)-4-(4-phenylphenyl)pyrimidine-5-carboxylate], the IC50 is at most 10000 nM. Take `CCOC(=O)c1cnc(NCCNc2ccc([N+](=O)[O-])cn2)nc1-c1ccncc1` [ethyl 2-({2-[(5-nitro(2-pyridyl))amino]ethyl}amino)-4-(4-pyridyl)pyrimidine-5-carboxylate]: the IC50 was at most 1000 nM. For `CCOC(=O)c1cnc(NCCNc2ccc([N+](=O)[O-])cn2)nc1-c1ccc(S(N)(=O)=O)cc1` [ethyl 2-({2-[(5-nitro(2-pyridyl))amino]ethyl}amino)-4-(4-sulfamoylphenyl)pyrimidine-5-carboxylate] the value was at most 10000 nM; for `CCOC(=O)c1cnc(NCCNc2ccc([N+](=O)[O-])cn2)nc1-c1cccc(C(F)(F)F)c1` [ethyl 2-({2-[(5-nitro(2-pyridyl))amino]ethyl}amino)-4-[3-(trifluoromethyl)phenyl]pyrimidine-5-carboxylate], at most 10000 nM. For `CCOC(=O)c1cnc(NCCNc2ccc([N+](=O)[O-])cn2)nc1-c1ccc(C(F)(F)F)cc1` [ethyl 2-({2-[(5-nitro(2-pyridyl))amino]ethyl}amino)-4-[4-(trifluoromethyl)phenyl]pyrimidine-5-carboxylate] the value was at most 1000 nM; for `CCOC(=O)c1cnc(NCCNc2ccc([N+](=O)[O-])c(N)n2)nc1-c1ccc(N2CCOCC2)cc1` [ethyl 2-({2-[(6-amino-5-nitro(2-pyridyl))amino]-ethyl}amino)-4-(4-morpholin-4-ylphenyl)pyrimidine-5-carboxylate], at most 1000 nM; for `CCOC(=O)c1cnc(NCCNc2ccc([N+](=O)[O-])c(N)n2)nc1-c1ccc(Cl)cc1Cl` [ethyl 2-({2-[(6-amino-5-nitro(2-pyridyl))amino]ethyl}amino)-4-(2,4-dichlorophenyl)-pyrimidine-5-carboxylate], at most 1000 nM.

For `CCOC(=O)c1cnc(NCCNc2ccc([N+](=O)[O-])c(N)n2)nc1-c1ccc(-c2cnco2)cc1` [ethyl 2-({2-[(6-amino-5-nitro(2-pyridyl))amino]ethyl}amino)-4-(4-(1,3-oxazol-5-yl)phenyl)pyrimidine-5-carboxylate], the IC50 was at most 1000 nM. Turning to `CCOC(=O)c1cnc(NCCNc2ccc([N+](=O)[O-])c(N)n2)nc1-c1ccc(C#N)cc1` [ethyl 2-({2-[(6-amino-5-nitro(2-pyridyl))amino]ethyl}amino)-4-(4-cyanophenyl)pyrimidine-5-carboxylate], the 50% inhibitory concentration (IC50) was at most 1000 nM. For `CCOC(=O)c1cnc(NCCNc2ccc([N+](=O)[O-])cn2)nc1-c1ccc(Cl)cc1Cl` [ethyl 4-(2,4-dichlorophenyl)-2-({2-[(5-nitro(2-pyridyl))amino]ethyl}amino)-pyrimidine-5-carboxylate], the half-maximal inhibitory concentration (IC50) is at most 1000 nM. The figure for `CCOC(=O)c1cnc(NCCNc2ccc([N+](=O)[O-])cn2)nc1-c1ccc(F)cc1F` [ethyl 4-(2,4-difluorophenyl)-2-({2-[(5-nitro(2-pyridyl))amino]ethyl}amino)pyrimidine-5-carboxylate] is at most 10000 nM. `CCOC(=O)c1cnc(NCCc2ccccn2)nc1-c1ccco1` [ethyl 4-(2-furyl)-2-[(2-(2-pyridyl)ethyl)amino]pyrimidine-5-carboxylate]: the IC50 was at most 10000 nM. For `CCOC(=O)c1cnc(NCCNc2ccc([N+](=O)[O-])cn2)nc1-c1ccc2ccccc2c1` [ethyl 4-(2-naphthyl)-2-({2-[(5-nitro(2-pyridyl))amino]-ethyl}amino)pyrimidine-5-carboxylate] the value was at most 1000 nM; for `CCOC(=O)c1cnc(NCCNc2ccc([N+](=O)[O-])cn2)nc1-c1ccc(Cl)c(Cl)c1` [ethyl 4-(3,4-dichlorophenyl)-2-({2-[(5-nitro(2-pyridyl))amino]ethyl}amino)pyrimidine-5-carboxylate], at most 10000 nM; for `CCOC(=O)c1cnc(NCCNc2ccc([N+](=O)[O-])cn2)nc1-c1ccc(F)c(F)c1` [ethyl 4-(3,4-difluorophenyl)-2-({2-[(5-nitro(2-pyridyl))amino]ethyl}amino)pyrimidine-5-carboxylate], at most 1000 nM. Turning to `CCOC(=O)c1cnc(NCCNc2ccc([N+](=O)[O-])cn2)nc1-c1ccc(OC)c(OC)c1` [ethyl 4-(3,4-dimethoxyphenyl)-2-({2-[(5-nitro(2-pyridyl))amino]ethyl}amino)pyrimidine-5-carboxylate], the IC50 was at most 10000 nM.
